According to patent US9428439B2, “Hydrobenzamide derivatives as inhibitors of Hsp90” (priority 2006, dated 2016):
“Also recorded” adds a separate entry of the source. Like-named read-outs stand apart in the source and are kept apart here.

Assay: Solid-state stability of crystalline forms (XRPD)
Format: physicochemical
Details: for stability in air: XRPD
Text: Samples for X-ray powder diffraction (XRPD) data collection were gently ground by marble mortar and loaded into a crystallographic capillary (from Hampton Research, Quartz or Glass Type 10, 0.4 or 0.7 mm diameter). Diffraction patterns were collected at room temperature using CuKα radiation (λ=1.5418 Å) from a Rigaku rotating anode RU3HR, Osmic blue confocal optics, ¼ c goniometer and a Rigaku HTC image plate detector. 2D Images were collected while spinning φ axis with a detector to crystal distance of 250 mm. Data collection was controlled by CrystalClear software and 2D images were converted to 1D plot (2θ vs. Intensity) by Datasqueeze (intensity averaged over the azimuthal angle 0≦χ≦360° for […] 3-30° in 0.02° steps). In house program AstexXRPD was used for manipulation and visualisation of 1D XRPD patterns.

CC(C)c1cc(C(=O)N2Cc3ccc(CN4CCN(C)CC4)cc3C2)c(O)cc1O.O=S(=O)(O)O [Form FS5, (2,4-dihydroxy-5-isopropyl-phenyl)-[5-(4-methyl-piperazin-1-ylmethyl)-1,3-dihydro-isoindol-2-yl]-methanone sulphate salt]
stability of the crystalline form (stable / unstable form) (listed as FS5, sulphate salt): stable forms | stability of the crystalline form (stable / unstable form) (listed as FS53, sulphate salt): stable form

CC(C)c1cc(C(=O)N2Cc3ccc(CN4CCN(C)CC4)cc3C2)c(O)cc1O [Form FB5, (2,4-dihydroxy-5-isopropyl-phenyl)-[5-(4-methyl-piperazin-1-ylmethyl)-1,3-dihydro-isoindol-2-yl]-methanone]
stability in air (listed as FB5): unstable in air; also recorded: transforms to FB6 in air; also recorded: conversion to form FB6

CC(C)c1cc(C(=O)N2Cc3ccc(CN4CCN(C)CC4)cc3C2)c(O)cc1O [Form FB6, (2,4-dihydroxy-5-isopropyl-phenyl)-[5-(4-methyl-piperazin-1-ylmethyl)-1,3-dihydro-isoindol-2-yl]-methanone]
stability in air (listed as FB6): stable in air; also recorded: stable on air

CC(C)c1cc(C(=O)N2Cc3ccc(CN4CCN(C)CC4)cc3C2)c(O)cc1O.O=S(=O)(O)O [Form FS6, (2,4-dihydroxy-5-isopropyl-phenyl)-[5-(4-methyl-piperazin-1-ylmethyl)-1,3-dihydro-isoindol-2-yl]-methanone sulphate salt]
stability at 40° C. and 75% RH (listed as FS6, sulphate salt): transforms into form FS3 | stability in air (listed as FS6, sulphate salt): stable in air | stability of the crystalline form (stable / unstable form) (listed as FS6, sulphate salt): stable forms

CC(C)c1cc(C(=O)N2Cc3ccc(CN4CCN(C)CC4)cc3C2)c(O)cc1O [Form FB4, (2,4-dihydroxy-5-isopropyl-phenyl)-[5-(4-methyl-piperazin-1-ylmethyl)-1,3-dihydro-isoindol-2-yl]-methanone]
stability of the crystalline form (stable / unstable form): stable | stability in air (listed as FB4): stable in air

CC(C)c1cc(C(=O)N2Cc3ccc(CN4CCN(C)CC4)cc3C2)c(O)cc1O.Cl [Form FH5, (2,4-dihydroxy-5-isopropyl-phenyl)-[5-(4-methyl-piperazin-1-ylmethyl)-1,3-dihydro-isoindol-2-yl]-methanone hydrochloride salt]
stability in air (listed as FH5, hydrochloride salt): unstable and dissolves in moist air

CC(C)c1cc(C(=O)N2Cc3ccc(CN4CCN(C)CC4)cc3C2)c(O)cc1O.Cl [Form FH3, (2,4-dihydroxy-5-isopropyl-phenyl)-[5-(4-methyl-piperazin-1-ylmethyl)-1,3-dihydro-isoindol-2-yl]-methanone hydrochloride salt]
stability at 40° C. and 75% RH: stable in air and at 40 °C and 75% RH for at least one month | stability in air (listed as FH3, hydrochloride salt): stable in air

CC(C)c1cc(C(=O)N2Cc3ccc(CN4CCN(C)CC4)cc3C2)c(O)cc1O.Cl [Form FH2, (2,4-dihydroxy-5-isopropyl-phenyl)-[5-(4-methyl-piperazin-1-ylmethyl)-1,3-dihydro-isoindol-2-yl]-methanone hydrochloride salt]
stability in air (listed as FH2, hydrochloride salt): unstable in air; also recorded: transforms on air into form FH3; also recorded: conversion to form FH3

CC(C)c1cc(C(=O)N2Cc3ccc(CN4CCN(C)CC4)cc3C2)c(O)cc1O.O=S(=O)(O)O [Form FS4, (2,4-dihydroxy-5-isopropyl-phenyl)-[5-(4-methyl-piperazin-1-ylmethyl)-1,3-dihydro-isoindol-2-yl]-methanone sulphate salt]
stability in a dry environment (20° C., 11% RH): transformation of form FS4 in a dry environment | stability of the crystalline form (stable / unstable form) (listed as FS4, sulphate salt): stable form

CC(C)c1cc(C(=O)N2Cc3ccc(CN4CCN(C)CC4)cc3C2)c(O)cc1O.C[C@H](O)C(=O)O [Form FL1, (2,4-dihydroxy-5-isopropyl-phenyl)-[5-(4-methyl-piperazin-1-ylmethyl)-1,3-dihydro-isoindol-2-yl]-methanone L-lactate salt]
stability at 40° C. and 75% RH: stable in air and at 40 °C and 75% RH for at least one month | stability in air (listed as FL): stable in air | stability of the crystalline form (stable / unstable form) (listed as FL1): stable forms

CC(C)c1cc(C(=O)N2Cc3ccc(CN4CCN(C)CC4)cc3C2)c(O)cc1O [Form FB2, (2,4-dihydroxy-5-isopropyl-phenyl)-[5-(4-methyl-piperazin-1-ylmethyl)-1,3-dihydro-isoindol-2-yl]-methanone]
stability in air (listed as FB2): unstable in air and converts to form FB3; also recorded: changed to crystal form FB3

CC(C)c1cc(C(=O)N2Cc3ccc(CN4CCN(C)CC4)cc3C2)c(O)cc1O.O=S(=O)(O)O [Form FS3, (2,4-dihydroxy-5-isopropyl-phenyl)-[5-(4-methyl-piperazin-1-ylmethyl)-1,3-dihydro-isoindol-2-yl]-methanone sulphate salt]
stability of the crystalline form (stable / unstable form) (listed as FS3, sulphate salt): stable form

CC(C)c1cc(C(=O)N2Cc3ccc(CN4CCN(C)CC4)cc3C2)c(O)cc1O [Form FB1, (2,4-dihydroxy-5-isopropyl-phenyl)-[5-(4-methyl-piperazin-1-ylmethyl)-1,3-dihydro-isoindol-2-yl]-methanone]
stability in air (listed as FB1): unstable in air and converts to form FB3; also recorded: converted completely to crystal form FB3

CC(C)c1cc(C(=O)N2Cc3ccc(CN4CCN(C)CC4)cc3C2)c(O)cc1O.O=S(=O)(O)O [Form FS2, (2,4-dihydroxy-5-isopropyl-phenyl)-[5-(4-methyl-piperazin-1-ylmethyl)-1,3-dihydro-isoindol-2-yl]-methanone sulphate salt]
stability at 40° C. and 75% RH (listed as FS2, sulphate salt): transforms to form FS4 | stability in air (listed as FS2, sulphate salt): unstable on air and transforms to form FS5 | stability of the crystalline form (stable / unstable form) (listed as FS2, sulphate salt): unstable forms

CC(C)c1cc(C(=O)N2Cc3ccc(CN4CCN(C)CC4)cc3C2)c(O)cc1O.C[C@H](O)C(=O)O [Form FL3, (2,4-dihydroxy-5-isopropyl-phenyl)-[5-(4-methyl-piperazin-1-ylmethyl)-1,3-dihydro-isoindol-2-yl]-methanone L-lactate salt]
stability in air (listed as FL3): transforms in air into form FL1; also recorded: conversion to form FL1 | stability of the crystalline form (stable / unstable form) (listed as FL3): unstable form

CC(C)c1cc(C(=O)N2Cc3ccc(CN4CCN(C)CC4)cc3C2)c(O)cc1O.C[C@H](O)C(=O)O [Form FL2, (2,4-dihydroxy-5-isopropyl-phenyl)-[5-(4-methyl-piperazin-1-ylmethyl)-1,3-dihydro-isoindol-2-yl]-methanone L-lactate salt]
stability in air (listed as FL2): stable in air | stability of the crystalline form (stable / unstable form) (listed as FL2): stable forms

CC(C)c1cc(C(=O)N2Cc3ccc(CN4CCN(C)CC4)cc3C2)c(O)cc1O.O=S(=O)(O)O [Form FS1, (2,4-dihydroxy-5-isopropyl-phenyl)-[5-(4-methyl-piperazin-1-ylmethyl)-1,3-dihydro-isoindol-2-yl]-methanone sulphate salt]
stability in air (listed as FS1, sulphate salt): unstable on air and transforms to form FS3 | stability of the crystalline form (stable / unstable form) (listed as FS1, sulphate salt): unstable forms

CC(C)c1cc(C(=O)N2Cc3ccc(CN4CCN(C)CC4)cc3C2)c(O)cc1O.Cl [Form FH4, (2,4-dihydroxy-5-isopropyl-phenyl)-[5-(4-methyl-piperazin-1-ylmethyl)-1,3-dihydro-isoindol-2-yl]-methanone hydrochloride salt]
stability in air (listed as FH4, hydrochloride salt): unstable and disintegrates in air
